Patent US7601732B2, “Crystalline form of 5(S)-(2-hydroxyethoxy)-20(S)-camptothecin” (Dr. Reddy's Laboratories Limited, priority 2006, dated 2009)
Where two headings read alike, the source gives them in different places.

Key:
Topoisomerase I = biological target: T1, Topoisomerase I (Homo sapiens, UniProt P11387); assay: Topoisomerase I assay (TopoGEN Topo I Drug Screening Kit); format: biochemical
T1 construct: purchased Topogen, Inc., Port Orange, Fla
T1 sequence (P11387 1-765): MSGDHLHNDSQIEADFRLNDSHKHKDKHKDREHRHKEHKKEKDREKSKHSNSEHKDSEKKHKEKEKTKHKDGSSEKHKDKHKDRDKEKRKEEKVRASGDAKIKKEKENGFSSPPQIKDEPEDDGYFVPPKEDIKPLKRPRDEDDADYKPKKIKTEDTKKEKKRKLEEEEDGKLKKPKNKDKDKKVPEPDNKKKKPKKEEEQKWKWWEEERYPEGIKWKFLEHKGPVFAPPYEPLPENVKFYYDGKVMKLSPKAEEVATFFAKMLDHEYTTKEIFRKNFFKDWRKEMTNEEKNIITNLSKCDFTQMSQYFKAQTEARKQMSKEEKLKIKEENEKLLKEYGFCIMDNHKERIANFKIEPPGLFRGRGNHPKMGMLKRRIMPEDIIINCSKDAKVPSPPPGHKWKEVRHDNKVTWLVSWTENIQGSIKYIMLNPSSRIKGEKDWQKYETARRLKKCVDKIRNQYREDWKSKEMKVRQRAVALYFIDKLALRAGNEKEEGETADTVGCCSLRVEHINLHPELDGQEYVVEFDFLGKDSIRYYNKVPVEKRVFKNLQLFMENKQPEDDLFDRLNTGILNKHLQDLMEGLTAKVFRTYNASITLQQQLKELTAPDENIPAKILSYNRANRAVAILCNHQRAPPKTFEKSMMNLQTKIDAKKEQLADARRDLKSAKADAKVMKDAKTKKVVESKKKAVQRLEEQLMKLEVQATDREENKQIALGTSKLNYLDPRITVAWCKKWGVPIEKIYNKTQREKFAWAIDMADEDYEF
Description: Topoisomerase I introduces transient nicks in DNA at specific sites. Detection of these transient DNA nicks requires trapping the enzyme on DNA in a nicked intermediate complex using protein denaturants. The resulting covalent DNA/topo I complexes contain nicked open circular DNA which can be detected by agarose gel electrophoresis (with ethidium bromide). Trapping nicked intermediates is relatively inefficient, however, inhibitors, such as the natural product camptothecin, stabilize the intermediate and lead to an increase in the nicked DNA product. This forms the basis for a mechanistic drug screen designed to allow detection of agents that affect topoisomerase I by stabilizing the cleaved intermediate complex.
The TopoGEN® Topo I Drug Screening Kit (Topogen, Inc., Port Orange, Fla.) is designed to allow the investigator to quickly identify novel inhibitors of topoisomerase I. The kit allows the detection of novel compounds that either stabilize the nicked intermediate or otherwise inhibit catalytic activity of topoisomerase I.
The above reaction mixture is incubated at 37° C. for 30 minutes. The reaction is terminated by adding 2 μl of 10% SDS and the mixture is vortexed rapidly (SDS should be added while at 37° C. as cooling the tubes might reseal the nicked DNA). 10× Dye, about 2.5 μl per tube, is added and equal volumes of a mixture of chloroform and isoamyl alcohol (24:1) is added and centrifuged at 13000 rpm for 10 minutes. Samples are loaded on a 1% agarose gel and electrophoresed for 1 hour at 80 volts. The gel was viewed on UV transilluminator and the densitometric estimation of the bands was calculated.
The density of the DNA bands of both super coiled and relaxed forms of DNA was measured using the densitometer. The band intensity of treated (with single concentration of the test drug) and without the drug (i.e., the Control) were recorded. The percentage of relaxed form DNA compared to the supercoiled DNA was calculated for all the lanes including treated and control.
% inhibition of Topoisomerase activity was calculated as: =(100−(100×(1/% inhibition in Control)×% inhibition in treated))

[1] = test system: NCI-H460 (human small cell lung carcinoma) xenografts; assay: NCI-H460 xenograft study in nude mice; format: in vivo; settings: oral, (d×5)2 schedule
Procedure: Percentage tumor growth inhibition was calculated using the formula: Percentage Tumor growth inhibition=100−% T/C.
The other parameter observed was mortality.

in vivo [2] = assay: in vivo; set-up: species or system male Wistar rats; settings: male, Wistar, rat, po, 5 mg/kg
Procedure: 5(S)-CPT (2.5 mg/kg) and 5(RS)-CPT (5 mg/kg, including 2.5 mg/kg of 5(S)-CPT in the mixture) were been administered to male Wistar Rats to evaluate oral pharmacokinetics.
(§1) Male Wistar rats, 6-8 weeks of age and weighing between 205 and 218 g were divided into groups of four rats. The oral pharmacokinetics test was carried out in overnight fasted condition and intravenous pharmacokinetics was carried out in fed condition. The test drugs were administered as a solution by oral gavage or lateral tail vein injection. Sparse blood samples of about 250 microliters were collected from retro-orbital plexus at designated time points into microcentrifuge tubes containing 25 microliters of EDTA. Plasma was separated by centrifuging blood at 12,800 rpm for 2 min and refrigerated until analysis.
(§2) Samples were tested for the presence of the test drug as follows. An aliquot of 100 μl plasma (stored at 8° C.) was precipitated with 400 μl of cold methanol for the estimation of total (lactone+carboxylate). […] Concentrations of the test drug were calculated from the linearity plotted by spiking known concentrations of the test drug in blank rat plasma. The pharmacokinetics of the test drug was calculated using non-compartmental analysis.

in vivo [3] = assay: in vivo; set-up: species or system Swiss Albino mice; settings: Swiss Albino, mouse, po, 5 mg/kg
Procedure: 5(S)-CPT (2.5 mg/kg) and 5(RS)-CPT (5 mg/kg, including 2.5 mg/kg of 5(S)-CPT in the mixture) were been administered to Swiss Albino mice to evaluate oral pharmacokinetics.
as §1, with “Swiss Albino mice, 3-6” for “Male Wistar rats, 6-8”, “28-34” for “205 and 218”, “used in the study. Twelve mice were used per study.” for “divided into groups of four rats.”
as §2

[4] = test system: Human bone marrow mononuclear cells; assay: Human bone marrow assay (CFU-GM colony inhibition); format: cell-based
Procedure: Methocult™ GF (Cat No: H4534, Poietics, Biowhittakar, USA) medium comprising Methycellulose in Iscove's MDM, Fetal bovine serum, Bovine serum albumin, 2-Mercaptoethanol, L-Glutamine, rhStem cell factor, rhGM-CSF and rhIL-3 was used for the assay. Human bone marrow mononuclear cells (Cat No. 2M-125C, Poietics, Biowhittakar, USA) were mixed with Methocult™ GF and the cell density was adjusted to 3×10^5 cells/ml. From this preparation, 500 μL aliquots were made and 2.5 μL of 20× drug solution or vehicle was added to each aliquot and mixed thoroughly. 100 μL of clonogenic medium was plated into each well and the plates were allowed to gel at 4° C. for 15 minutes. Plates were incubated at 37° C. in a fully humidified atmosphere of 5% CO2 in an incubator for 14 days. CFU-GM colonies were counted under an inverted microscope as aggregates of 50 cells or more. The percentage colony inhibition was calculated using the following formula: 100−[(number of colonies in drug treated wells/Number of colonies in control wells)×100].

[5] = test system: Saos-2 cells over expressing functional BCRP#4; format: cell-based, human
Procedure: (§3) The anticancer effect of 5(S)-CPT & 5(R)-CPT were evaluated versus the diastereoisomeric mixture 5(RS)-CPT on Saos-2 cells over expressing functional BCRP#4 and non-functional BCRP mut#10. The human osteosarcoma cell line, Saos-2, was obtained from ATCC (American Type Culture Collection, Cat#HTB-85, Manassas, Va.) and were maintained in DMEM containing 10% fetal bovine serum, 1% penicillin/streptomycin, and 2 mM glutamine. Saos-2 cells were transfected with either BCRP#4 to over express functional BCRP or BCRP#10 to over express non-functional BCRP transporter. The cells were plated in 96-well plates at a density of 1000 cells per each well in a 0.1 ml of medium and allowed to attach overnight. The next morning the medium was gently aspirated and serial dilutions of the compounds to be tested were added. The cells were incubated at 37° C. in a 5% CO2 incubator. After 6 days of exposure to the test drugs, 10 μl of Alamar blue was added aseptically to each well and the plates were returned to the incubator for 6 hr. The amount of the fluorescent dye produced was measured on a Cytofluor 2300(Millipore, Bedford, Mass.) using an excitation wavelength of 530 nm and emission wavelength of 590 nm. The relative fluorescence units obtained were used to calculate the percentage growth at each concentration in relation to the untreated control values. […]

[6] = test system: Saos-2 cells over expressing non-functional BCRP mut#10; format: cell-based, human
Procedure: as §3

[7] = format: physicochemical; settings: accelerated stability 40° C.±2° C./75% RH±5% RH for 6 months
Procedure: The water content of crystalline 5(S)-CPT was measured by Mettler® DL 31 KF apparatus by using Karl Fischer reagent. A weighed quantity of crystalline 5(S)-CPT was transferred into a titration vessel of a Karl Fischer apparatus containing about 40 ml of previously neutralized methanol. The sample was dissolved with stirring, and was titrated with Karl Fisher Reagent to the end point under vigorous stirring. Water content was calculated as: […]
The product is stable in 6 months accelerated conditions.
In one embodiment, 5(S)-CPT is isolated in crystalline form, which exists substantially free from water (i.e., essentially anhydrous). The term “substantially free from water” means the presence of less than about 1.0% water w/w and even specifically less than about 0.5% water w/w as measured by Karl Fisher analysis or TGA. […] The product is stable for 6 months under accelerated stability testing conditions of 40° C.±2° C./75% RH±5% RH and stable for 24 months under long term stability testing conditions at 30° C.±2° C./65%±5% RH.

SMILES	IC50 (Topoisomerase I)	% Tumor Growth Inhibition ([1]; 2 mg/kg)	Mortality ([1]; 2 mg/kg)	Mortality ([1]; 4 mg/kg)	AUC (in vivo [2])	AUC (in vivo [3])	GI90 for human bone marrow cells in vitro ([4]; human, 14 days)	Safety Margin (GI90/GI50) ([4]; human, 14 days)	fold more cytotoxic than 5(R)-CPT [5]	fold more cytotoxic than 5(R)-CPT [6]	fold more active than 5(R)-CPT in inhibiting topoisomerase I (Topoisomerase I; versus 5(R)-CPT)	times more active than 5(RS)-CPT in inhibiting topoisomerase I (Topoisomerase I; versus 5(RS)-CPT)	Safety Margin (GI90/GI50) ([4]; ratio of GI90 for human cell toxicity to GI50 for anticancer activity)	change in water content (Karl Fisher analysis) [7]	hygroscopicity [7]	change in water content (Karl Fisher analysis) ([7]; listed as crystalline 5(S)-CPT)
CC[C@@]1(O)C(=O)OCc2c1cc1n(c2=O)C(OCCO)c2cc3ccccc3nc2-1 (mixture of isomers) [5(RS)-CPT, 5(RS)-(2′-hydroxyethoxy)-20(S)-camptothecin, reference compound]	12.5 µM	60%	0/5	0/5	5.08 µM·h	5.2 µM·h	–	–	–	–	–	–	–	–	–	–
CC[C@@]1(O)C(=O)OCc2c1cc1n(c2=O)[C@H](OCCO)c2cc3ccccc3nc2-1 [5(R)-CPT, 5(R)-(2′-hydroxyethoxy)-20(S)-camptothecin, reference compound]	22 µM	–	–	–	–	–	0.89 µM	0.06	–	–	–	–	–	–	–	–
CC[C@@]1(O)C(=O)OCc2c1cc1n(c2=O)[C@@H](OCCO)c2cc3ccccc3nc2-1 [5(S)-CPT, 5(S)-(2′-hydroxyethoxy)-20(S)-camptothecin]	1.06 µM	–	0/5	0/5	5.76 µM·h	5.18 µM·h	0.69 µM	–	> 2.5 fold	~6 fold	about 21 fold	about 12 times	0.14	no appreciable change	non-hygroscopic	No change
